# Marks after values point to notes of the source that are not given here.
# Columns and labels:
# [1] = Phase 2 CSSSI study, safety and adverse events by patient; type: in vivo, human
# Experimental: (§1) A randomized (1:1), controlled, evaluator-blinded Phase 2 study comparing 9-[(2,2-dimethyl-propyl amino)-methyl-minocycline (compound 1) and linezolid (Zyvox™) for the treatment of complicated skin and skin structure infections (CSSSI) was conducted. Patients with CSSSI who required initial intravenous (IV) therapy and met inclusion and exclusion criteria were enrolled at 11 centers in the US and were randomized to receive either compound 1 (100 mg Q24 h IV with 200 mg Q24 h oral step-down) or linezolid (600 mg Q12 h IV with 600 mg Q12 h oral step-down).
# (§2) At each of the four structured evaluations, the blinded evaluator assessed the subject, with particular attention to scoring the findings at the primary site of infection and obtaining cultures. Clinical and microbiologic outcomes were determined using these assessments. Primary evaluation criteria was safety and tolerability compared with linezolid. Secondary evaluation criteria was efficacy of compound 1 compared to linezolid, as well as pharmacokinetics of compound 1.
# In addition, the patients in the study were monitored for adverse events (AE). An adverse event is any untoward medical occurrence temporally associated with the use of a medical product in a subject, whether or not the event is considered causally related to the medical product.
# [2] = test system: complicated skin and skin structure infections (CSSSI); assay: Phase 2 study in CSSSI, clinical outcome at test of cure; type: in vivo, human
# Experimental: as §1
# All subjects had four structured evaluations: at Enrollment (Baseline); at End of IV Treatment; at End of Treatment; and at 10 to 17 days after last dose of treatment (test of cure (TOC) evaluation). In addition, the blinded investigator saw each subject daily while they were on IV therapy and at least every 3 days while receiving oral treatment to determine whether to continue current treatment, switch from IV to oral therapy, or discontinue treatment.
# as §2
# At each scheduled evaluation, the blinded evaluator examined the primary site of infection; for patients with multiple non-contiguous areas of infection, the blinded evaluator identified the most severely affected portion at Enrollment and designated that as the primary site of infection. The following information was recorded for each patient: maximal linear dimension of area of continuous involvement of infection; maximal linear dimension of ulceration, if present; semi-qualitative (scale of 0 to 3; none, mild, marked, severe) description of infection for the following features: erythema, edema/induration, fluctuance, necrotic tissue, purulence (including drainage), and tenderness/pain. In addition, at the Enrollment Evaluation, the following were also recorded the anatomical location of the primary site of infection; and the clinical diagnosis of the type of the infection.
# Both the investigational drug, compound 1, and the comparator drug, Zyvox™ were administered intravenously and orally. Patients randomized to linezolid may have received aztreonam IV for suspected or documented gram-negative infection. Subjects were initially treated with study drug IV and then switched to oral therapy. The expected duration of IV treatment was up to 7 days; the expected total duration of treatment (IV and oral) was up to 14 days.
# For IV administration, the HCl salt of compound 1 for injection was given as 100 mg in 100 ml sterile saline infused over 30 minutes q24 h. For oral administration, compound 1 100 mg capsules were taken fasting as 2 capsules with 8 oz. water q24 h. No food was to be taken for 30 to 60 minutes after dosing and no dairy products for 4 hours.
# Linezolid (Zyvox™) 600 mg tablets and pre-mixed 600 mg IV infusion solution (300 ml volume) were obtained from commercial sources. Linezolid 600 mg IV was administered as a 30 minute infusion.
# Efficacy analyses were performed on several populations of subjects. Subjects were analyzed for efficacy according to randomization, regardless of treatment administered.
# The Intent-to-Treat (ITT) population includes all enrolled subjects who received at least one dose of study medication.
# The modified Intent-to-Treat (mITT) population comprises all subjects in the ITT population who have an Infecting Pathogen isolated at prior to administration of the study compound. […]
# [3] = test system: Enterococcus; assay: Phase 2 CSSSI study, clinical outcome by organism: Enterococcus; type: in vivo; settings: ME population
# Experimental: as §1
# An infecting pathogen was defined as an isolate derived from the last positive culture taken from the site of infection under study prior to and including day 1.
# [4] = probably or possibly drug-related by blinded evaluator
# [5] = clinically evaluable population
# [6] = microbiologically evaluable population
smiles,measurement,setting,value
"CC(=O)NCC1CN(c2ccc(N3CCOCC3)c(F)c2)C(=O)O1 (stereo not shown) [Linezolid, N-[[3-(3-fluoro-4-morpholinophenyl)-2-oxooxazolidin-5-yl]methyl]acetamide, reference compound]","Adverse events by patient, Cardiac, Drug Related",[1]; [4],3
same,"Adverse events by patient, Ear, Drug Related",[1]; [4],1
same,"Adverse events by patient, Eye, Drug Related",[1]; [4],1
same,"Adverse events by patient, GI, Drug Related",[1]; [4],13^b
same,"Adverse events by patient, General, Drug Related",[1]; [4],4
same,"Adverse events by patient, Heme, Drug Related",[1]; [4],0
same,"Adverse events by patient, Infection, Drug Related",[1]; [4],1
same,"Adverse events by patient, Injury, Drug Related",[1]; [4],1
same,"Adverse events by patient, Investigations, Drug Related",[1]; [4],8
same,"Adverse events by patient, Metabolism, Drug Related",[1]; [4],2
same,"Adverse events by patient, Musculoskeletal, Drug Related",[1]; [4],0
same,"Adverse events by patient, Neurologic, Drug Related",[1]; [4],7
same,"Adverse events by patient, Psych, Drug Related",[1]; [4],3
same,"Adverse events by patient, Renal, Drug Related",[1]; [4],0
same,"Adverse events by patient, Reproductive, Drug Related",[1]; [4],0
same,"Adverse events by patient, Respiratory, Drug Related",[1]; [4],0
same,"Adverse events by patient, Skin, Drug Related",[1]; [4],6^c
same,"Adverse events by patient, Vascular, Drug Related",[1]; [4],1
same,"Adverse events by patient, GI, Drug Related","[1]; probably or possibly drug-related by blinded evaluator, listed as linezolid",13
same,"Adverse events by patient, Cardiac, Total",[1]; safety population,4
same,"Adverse events by patient, Ear, Total",[1]; safety population,2
same,"Adverse events by patient, Eye, Total",[1]; safety population,1
same,"Adverse events by patient, GI, Total",[1]; safety population,21
same,"Adverse events by patient, General, Total",[1]; safety population,8
same,"Adverse events by patient, Heme, Total",[1]; safety population,2
same,"Adverse events by patient, Infection, Total",[1]; safety population,9
same,"Adverse events by patient, Injury, Total",[1]; safety population,1
same,"Adverse events by patient, Investigations, Total",[1]; safety population,11
same,"Adverse events by patient, Metabolism, Total",[1]; safety population,7
same,"Adverse events by patient, Musculoskeletal, Total",[1]; safety population,2
same,"Adverse events by patient, Neurologic, Total",[1]; safety population,15
same,"Adverse events by patient, Psych, Total",[1]; safety population,6
same,"Adverse events by patient, Renal, Total",[1]; safety population,2
same,"Adverse events by patient, Reproductive, Total",[1]; safety population,1
same,"Adverse events by patient, Respiratory, Total",[1]; safety population,2
same,"Adverse events by patient, Skin, Total",[1]; safety population,10
same,"Adverse events by patient, Vascular, Total",[1]; safety population,1
same,"Patients with no adverse event (None), %",[1]; safety population,49.1%
same,"Patients with no adverse event (None), number",[1]; safety population,53
same,"Total Patients with 1 or more AE, %",[1]; safety population,50.9%
same,"Total Patients with 1 or more AE, number",[1]; safety population,55
same,Clinical Failure (% of subjects),[2]; ITT population,24.1%
same,Clinical Failure (number of subjects),[2]; ITT population,26
same,Clinical Failure: Failure (% of subjects),[2]; ITT population,5.6%
same,Clinical Failure: Failure (number of subjects),[2]; ITT population,6
same,Clinical Failure: Nonevaluable (% of subjects),[2]; ITT population,18.5%
same,Clinical Failure: Nonevaluable (number of subjects),[2]; ITT population,20
same,Clinical Success (% of subjects),[2]; ITT population,75.9%
same,Clinical Success (number of subjects),[2]; ITT population,82
same,Clinical Failure (% of subjects),[2]; [5],6.8%
same,Clinical Failure (number of subjects),[2]; [5],6
same,Clinical Success (% of subjects),[2]; [5],93.2%
same,Clinical Success (number of subjects),[2]; [5],82
same,Clinical Failure (% of subjects),[2]; mITT population,24.4%
same,Clinical Failure (number of subjects),[2]; mITT population,19
same,Clinical Failure: Failure (% of subjects),[2]; mITT population,5.1%
same,Clinical Failure: Failure (number of subjects),[2]; mITT population,4
same,Clinical Failure: Nonevaluable (% of subjects),[2]; mITT population,19.2%
same,Clinical Failure: Nonevaluable (number of subjects),[2]; mITT population,15
same,Clinical Success (% of subjects),[2]; mITT population,75.6%
same,Clinical Success (number of subjects),[2]; mITT population,59
same,Clinical Failure (% of subjects),[2]; [6],6.3%
same,Clinical Failure (number of subjects),[2]; [6],4
same,Clinical Success (% of subjects),[2]; [6],93.7%
same,Clinical Success (number of subjects),[2]; [6],59
same,Clinical outcome Failure (number),[3],0
same,Clinical outcome Success (number),[3],3
